# Peptide text beside a SMILES is read from it.
# What was measured:
# Human erythrocytes = experiment: Haemolysis assay using human blood; assay type: cell-based; conditions: red cells of human, 1 h
# Description: To determine the extent of haemolytic activity (the ability to lyse red blood cells) in test peptides, a haemolysis assay was conducted using human blood (BioIVT, West Sussex, UK). Human erythrocytes were exposed to a single fixed concentration or a range of concentrations as to determine the % haemolysis (fixed concentration) or the concentration at which 50% haemolysis occurred (HC50), respectively. Prior to the assay, whole human blood was repeatedly washed in phosphate buffered saline (PBS) under cooled conditions to remove the buffy coat, plasma and cell debris. Washed erythrocytes were diluted as to achieve 1×10^8 cells/mL in PBS. Prepared human erythrocyte samples were combined with peptide at a single fixed concentration of 128 μg/mL, or a range of concentrations (two-fold dilution series) from 1000-31.25 μg/mL. Positive and negative controls containing 2% (v/v) Triton X-100 and PBS alone, respectively, were also prepared. Samples were incubated at 37° C. for 1 hour and then centrifuged to collect intact erythrocytes. Haemoglobin release was determined by recording the optical density of the supernatant at 540 nm. Optical density values were transformed to a percentage of the positive control. Results were recorded as a percentage haemolysis at 128 μg/mL, or by plotting the percentage haemolysis versus concentration and extrapolating the HC50 using linear regression analysis (Table 2 above)
# The therapeutic index is a widely-accepted parameter to represent the specificity of antimicrobial peptides for prokaryotic versus eukaryotic cells. It is calculated by the ratio of hemolytic activity and antimicrobial activity (MIC) (Table 2 above); thus, larger values of therapeutic index indicate greater specificity for prokaryotic cells. With the peptides used in this study the inventors used the HC50/MIC ratio value to calculate the therapeutic index.
# [1] = test system: Pseudomonas aeruginosa ATCC 27853; assay type: cell-based; conditions: ATCC 27853
# Description: (§1) Bacterial strains were acquired from the American Type Culture Collection (ATCC, Virginia, USA) and the National Collection of Type Cultures (NCTC, Public Health England, Salisbury, UK). Minimum Inhibitory Concentration (MIC) of peptides versus gram-negative strains-Acinetobacter baumannii NCTC 13420, and Pseudomonas aeruginosa ATCC 27853 and gram-positive strain Staphylococcus aureus ATCC 29213, were determined by broth microdilution as per the guidelines of the Clinical and Laboratory Standards Institute (“Methods for Dilution Antimicrobial Susceptibility Tests for Bacteria That Grow Aerobically”; Approved Standard-Ninth Edition. CLSI document M07-A9, 2012). Peptides were dissolved in sterile distilled water, which was also used as the drug-free vehicle control when determining peptide MICs. Prior to use in the MIC protocol, bacterial strains were grown on Mueller Hinton agar at 37° C. in an ambient atmosphere. […] A fixed inoculum of the test microorganism (5×10^5 cells/mL) is also added to the plate. The MIC is determined as the lowest concentration of compound that inhibits visible bacterial growth following incubation at 37° C. for 16-20 hours. A difference in MIC of two-fold between experimental replicates is considered to be within the normal variability of this protocol.
# [2] = test system: Acinetobacter baumannii NCTC 13420; assay type: cell-based; conditions: NCTC 13420
# Description: as §1
# [3] = Peptide hydrophobicity by RP-HPLC retention; assay type: physicochemical; conditions: for tR (relative hydrophobicity by RP-HPLC): Zorbax SB-300 C8, 0.25% B/min from 10% B, 0.3 ml/min, 30° C.; for ΔtR (Lys): retention time difference to the Lys13/Lys16 parent peptide
# From the text: Retention behavior in RP-HPLC is an excellent method to represent overall peptide hydrophobicity. Retention times of peptides are highly sensitive to the conformational status of the peptides upon interaction with the hydrophobic environment of the column matrix^17,26. The non-polar faces of amphipathic alpha-helical and amphipathic cyclic beta-sheet peptides represent a preferred binding domain for interaction with the hydrophobic matrix of the reversed-phase column^27. In this study, the observed peptide hydrophobicity was determined by RP-HPLC retention time as described below and are relative hydrophobicities because they are dependent on the TFA concentration and organic solvent in the mobile phase, gradient rate, temperature, flow rate and the column used. Analytical Purification by Reversed-phase Chromatography: Analytical RP-HPLC: Column: Zorbax SB-300 C8 (150×2.1 mm ID; 5-μm particle size; 300 Å pore size). Conditions: linear AB gradient (0.25% B/min from 10% B) at a flow-rate of 0.3 ml/min, where Eluent A is 0.2% aq. TFA and Eluent B is 0.18% TFA in acetonitrile; 30° C.
Compound,P. aeruginosa ATCC27853 MIC [1],Antimicrobial Activity MIC A. baumannii NCTC13420 [2],tR (relative hydrophobicity by RP-HPLC) [3],ΔtR (Lys) [3],Haemolysis HC50 (Human erythrocytes)
CC(=O)N[C@H](C)C(=O)N[C@H](CC(C)C)C(=O)N[C@H](CCCCN)C(=O)N[C@H](CCCCN)C(=O)N[C@H](CC(C)C)C(=O)N[C@H](CC(C)C)C(=O)N[C@H](CCCCN)C(=O)N[C@H](CCCCN)C(=O)N[C@H](CC(C)C)C(=O)N[C@H](CO)C(=O)N[C@H](CO)C(=O)N[C@H](C)C(=O)N[C@H](CCCN)C(=O)N[C@H](CO)C(=O)N[C@H](CO)C(=O)N[C@H](CCCN)C(=O)N[C@H](CC(C)C)C(=O)N[C@H](CO)C(=O)N[C@@H](C(=O)N[C@H](CC(C)C)C(=O)N[C@H](CC(C)C)C(=O)N[C@H](CCCCN)C(=O)N[C@H](CCCCN)C(=O)N[C@H](CC(C)C)C(=O)N[C@H](CCCCN)C(=O)N[C@H](CCCCN)C(N)=O)[C@H](C)O [compound 19] (HELM PEPTIDE1{[ac].[dA].[dL].[dK].[dK].[dL].[dL].[dK].[dK].[dL].[dS].[dS].[dA].[NCCC[C@@H](N[*:1])C(=O)[*:2]].[dS].[dS].[NCCC[C@@H](N[*:1])C(=O)[*:2]].[dL].[dS].[dT].[dL].[dL].[dK].[dK].[dL].[dK].[dK].[am]}$$$$V2.0),4 µg/mL,2 µg/mL,91.57 min,2.94 min,>1000 µg/mL
CC(=O)N[C@H](C)C(=O)N[C@H](CC(C)C)C(=O)N[C@H](CCCCN)C(=O)N[C@H](CCCCN)C(=O)N[C@H](CC(C)C)C(=O)N[C@H](CC(C)C)C(=O)N[C@H](CCCCN)C(=O)N[C@H](CCCCN)C(=O)N[C@H](CC(C)C)C(=O)N[C@H](CO)C(=O)N[C@H](CO)C(=O)N[C@H](C)C(=O)N[C@H](CCN)C(=O)N[C@H](CO)C(=O)N[C@H](CO)C(=O)N[C@H](CCN)C(=O)N[C@H](CC(C)C)C(=O)N[C@H](CO)C(=O)N[C@@H](C(=O)N[C@H](CC(C)C)C(=O)N[C@H](CC(C)C)C(=O)N[C@H](CCCCN)C(=O)N[C@H](CCCCN)C(=O)N[C@H](CC(C)C)C(=O)N[C@H](CCCCN)C(=O)N[C@H](CCCCN)C(N)=O)[C@H](C)O [compound 20] (HELM PEPTIDE1{[ac].[dA].[dL].[dK].[dK].[dL].[dL].[dK].[dK].[dL].[dS].[dS].[dA].[NCC[C@@H](N[*:1])C(=O)[*:2]].[dS].[dS].[NCC[C@@H](N[*:1])C(=O)[*:2]].[dL].[dS].[dT].[dL].[dL].[dK].[dK].[dL].[dK].[dK].[am]}$$$$V2.0),4 µg/mL,2 µg/mL,91.57 min,2.94 min,>1000 µg/mL

# Now from value to compound, other results behind:
P. aeruginosa ATCC27853 MIC [1],Antimicrobial Activity MIC A. baumannii NCTC13420 [2],tR (relative hydrophobicity by RP-HPLC) [3],ΔtR (Lys) [3],Compound,Haemolysis HC50 (Human erythrocytes)
4 µg/mL,2 µg/mL,83.40 min,3.97 min,CC(=O)N[C@H](CCCCN)C(=O)N[C@H](CC(C)C)C(=O)N[C@H](CCCCN)C(=O)N[C@H](CCCCN)C(=O)N[C@H](CC(C)C)C(=O)N[C@H](CC(C)C)C(=O)N[C@H](CCCCN)C(=O)N[C@H](CCCCN)C(=O)N[C@H](CC(C)C)C(=O)N[C@H](CO)C(=O)N[C@H](CO)C(=O)N[C@H](C)C(=O)N[C@H](CCN)C(=O)N[C@H](CO)C(=O)N[C@H](CO)C(=O)N[C@H](CCN)C(=O)N[C@H](CC(C)C)C(=O)N[C@H](CO)C(=O)N[C@@H](C(=O)N[C@H](CC(C)C)C(=O)N[C@H](CC(C)C)C(=O)N[C@H](CCCCN)C(=O)N[C@H](CCCCN)C(=O)N[C@H](CC(C)C)C(=O)N[C@H](CCCCN)C(=O)N[C@H](CCCCN)C(N)=O)[C@H](C)O [compound 15] (HELM PEPTIDE1{[ac].[dK].[dL].[dK].[dK].[dL].[dL].[dK].[dK].[dL].[dS].[dS].[dA].[NCC[C@@H](N[*:1])C(=O)[*:2]].[dS].[dS].[NCC[C@@H](N[*:1])C(=O)[*:2]].[dL].[dS].[dT].[dL].[dL].[dK].[dK].[dL].[dK].[dK].[am]}$$$$V2.0),>1000 µg/mL
4 µg/mL,2 µg/mL,84.06 min,3.31 min,CC(=O)N[C@H](CCCCN)C(=O)N[C@H](CC(C)C)C(=O)N[C@H](CCCCN)C(=O)N[C@H](CCCCN)C(=O)N[C@H](CC(C)C)C(=O)N[C@H](CC(C)C)C(=O)N[C@H](CCCCN)C(=O)N[C@H](CCCCN)C(=O)N[C@H](CC(C)C)C(=O)N[C@H](CO)C(=O)N[C@H](CO)C(=O)N[C@H](C)C(=O)N[C@H](CN)C(=O)N[C@H](CO)C(=O)N[C@H](CO)C(=O)N[C@H](CN)C(=O)N[C@H](CC(C)C)C(=O)N[C@H](CO)C(=O)N[C@@H](C(=O)N[C@H](CC(C)C)C(=O)N[C@H](CC(C)C)C(=O)N[C@H](CCCCN)C(=O)N[C@H](CCCCN)C(=O)N[C@H](CC(C)C)C(=O)N[C@H](CCCCN)C(=O)N[C@H](CCCCN)C(N)=O)[C@H](C)O [compound 16] (HELM PEPTIDE1{[ac].[dK].[dL].[dK].[dK].[dL].[dL].[dK].[dK].[dL].[dS].[dS].[dA].[NC[C@@H](N[*:1])C(=O)[*:2]].[dS].[dS].[NC[C@@H](N[*:1])C(=O)[*:2]].[dL].[dS].[dT].[dL].[dL].[dK].[dK].[dL].[dK].[dK].[am]}$$$$V2.0),>1000 µg/mL
4 µg/mL,2 µg/mL,94.92 min,0.41 min,CC(=O)N[C@H](C)C(=O)N[C@H](CC(C)C)C(=O)N[C@H](CCCCN)C(=O)N[C@H](CCCCN)C(=O)N[C@H](CC(C)C)C(=O)N[C@H](CC(C)C)C(=O)N[C@H](CCCCN)C(=O)N[C@H](CCCCN)C(=O)N[C@H](CC(C)C)C(=O)N[C@H](CO)C(=O)N[C@H](CO)C(=O)N[C@H](C)C(=O)N[C@H](CN)C(=O)N[C@H](CO)C(=O)N[C@H](CO)C(=O)N[C@H](CN)C(=O)N[C@H](CC(C)C)C(=O)N[C@H](CO)C(=O)N[C@@H](C(=O)N[C@H](CC(C)C)C(=O)N[C@H](CC(C)C)C(=O)N[C@H](CCCCN)C(=O)N[C@H](CCCCN)C(=O)N[C@H](CC(C)C)C(=O)N[C@H](CCCCN)C(=O)N[C@H](CCCCN)C(N)=O)[C@H](C)O [compound 21] (HELM PEPTIDE1{[ac].[dA].[dL].[dK].[dK].[dL].[dL].[dK].[dK].[dL].[dS].[dS].[dA].[NC[C@@H](N[*:1])C(=O)[*:2]].[dS].[dS].[NC[C@@H](N[*:1])C(=O)[*:2]].[dL].[dS].[dT].[dL].[dL].[dK].[dK].[dL].[dK].[dK].[am]}$$$$V2.0),>1000 µg/mL
